Source: paper PMC6639268 (Journal of Virology, 2019)
Where two headings read alike, the source gives them in different places.

Experiments:
EBOV-pseudotyped virus = format: cell-based, Zaire ebolavirus
in vitro [1] = conditions: human, CC50, Pseudotyped
[2] = system: EBOV (HIV-1/EBOV-GP) pseudotyped virus; conditions: for IC50: read-out: IC50, Pseudotyped (no detergent)
EBOV trVLP [3] = assay: microbe, parasite or virus in culture; conditions: Zaire ebolavirus, HEK-293T, read-out: IC50, trVLP
in vitro [4] = conditions: human
[5] = system: steroidogenic acute regulatory protein; conditions: cited from earlier work
293T cells = conditions: for Cytotoxicity in single-concentration screen: 25 μM; for CC50: human
[6] = system: EBOV (HIV-1/EBOV-GP) pseudotyped virus; assay: microbe, parasite or virus in culture; conditions: Zaire ebolavirus, HEK-293T
EBOV trVLP [7] = system: EBOV trVLP
[8] = system: VSV (HIV-1/VSV-G) pseudotyped virus; format: cell-based, vesicular stomatitis virus
[9] = read-out: IC50, Pseudotyped (no detergent)

With `CCOC(=O)[C@H]1O[C@@H]1C(=O)N[C@@H](CC(C)C)C(=O)NCCC(C)C` [Compound E64d, E64d] the “Time point up to which maximum inhibition occurred” value (EBOV-pseudotyped virus) was at most 80 min.

In the case of `Cc1ccc(C(=O)N/C(=C/c2ccc(-c3ccc(Br)cc3)o2)C(=O)NCCCN(C)C)cc1` [Compound I01], the CC50 (in vitro [1]) is reported as 11 to 15 µM, the “Normalized luciferase signal (infectivity signal per cell as a fraction of the maximum)” value [2] is reported as “most activity” and the “SI (CC50/IC50), Pseudotyped” value [2] is reported as 8.2. For the same molecule, the IC50 (EBOV trVLP [3]) was 1.1 ± 0.99 µM, the CC50 (in vitro [4]) was 9.72 ± 3.23 µM and the “Activity on steroidogenic acute regulatory protein” value [5] was “nonspecific inhibitor”. The “Cytotoxicity in single-concentration screen” value (293T cells) was “most cytotoxic”, the CC50 (293T cells) was 14.6 ± 5.86 µM and the IC50 ([6]; read-out: IC50 with Tween 80) was 2.48 ± 1.35 µM. The “SI (CC50/IC50), trVLP” value (EBOV trVLP [7]) was 8.8.

For `COc1ccc(CN2CCOc3cc(O[C@H]4CCCN(C)C4)cc(-c4ccc(C)s4)c3C2)c(O)c1` [Compound I49], the CC50 (in vitro [1]) was 11 to 15 µM, the “Normalized luciferase signal (infectivity signal per cell as a fraction of the maximum)” value [2] was “most activity” and the “SI (CC50/IC50), Pseudotyped” value [2] was 3.8. For the same molecule, the IC50 [2] was 2.91 ± 0.63 µM, the IC50 (EBOV trVLP [3]) was 2.67 ± 1.49 µM and the “Cytotoxicity in single-concentration screen” value (293T cells) was “most cytotoxic”. It also gave a CC50 (293T cells) of 11 ± 6.46 µM, an IC50 [6, 9] of under 5 µM and an IC50 ([6]; read-out: IC50 with Tween 80) of 3.12 ± 0.68 µM. The “Inhibitory activity against VSV-G-pseudotyped virus entry” value (“Inhibitory activity” for short) [8] was “least average inhibitory activity against VSV-G”.

In the case of `CN(Cc1cccc(OCCN2CCN(S(=O)(=O)C3CCCCC3Cl)CC2)c1)CC1CCC(=O)N1` (stereo not drawn) [Compound I53], the CC50 (in vitro [1]) is reported as 110 ± 58 µM, the “SI (CC50/IC50), Pseudotyped” value [2] is reported as 3.0 and the IC50 (EBOV trVLP [3]) is reported as 13.6 ± 12.2 µM. It also gave a CC50 (in vitro [4]) of 47.5 ± 31.8 µM, an IC50 [6, 9] of 36.7 µM and an IC50 ([6]; read-out: IC50 with Tween 80) of 35.3 µM. For the same molecule, the “SI (CC50/IC50), trVLP” value (EBOV trVLP [7]) was 3.5.

For `CCOc1ccc([C@@H](O)Cn2c(=N)n(CCN3CCCCC3)c3ccccc32)cc1` [Compound S03], the CC50 (in vitro [1]) was 80 ± 45.5 µM, the IC50 [2] was 5.79 ± 6.7 µM and the IC50 (EBOV trVLP [3]) was 4.04 µM. The CC50 (in vitro [4]) was 57.6 ± 24.2 µM, the IC50 [6, 9] was under 10 µM and the IC50 ([6]; read-out: IC50 with Tween 80) was 5.21 µM. The “SI (CC50/IC50), trVLP” value (EBOV trVLP [7]) was 14.3.

With `COc1ccc(CNCc2cc(F)cc(F)c2)cc1OC[C@H](O)CN1CCN(C)CC1` [Compound S29] the CC50 (in vitro [1]) was 113 ± 82.2 µM, the “SI (CC50/IC50), Pseudotyped” value [2] was 4.4 and the IC50 [2] was 25.7 ± 9 µM. For the same molecule, the IC50 (EBOV trVLP [3]) was over 20 µM, the CC50 (in vitro [4]) was 75.1 ± 24.4 µM and the IC50 [6, 9] was about 26 µM. For the same molecule, the IC50 ([6]; read-out: IC50 with Tween 80) was 5.03 ± 3.62 µM, the “SI (CC50/IC50), trVLP” value (EBOV trVLP [7]) was 2.9 and the IC50 (EBOV trVLP [7]; read-out: IC50, trVLP) was 26.3 ± 17.1 µM. The “Inhibitory activity” value [8] was “least average inhibitory activity against VSV-G”.

For `CN(C)[C@@H]1CCN(CC(c2ccccc2)c2ccccc2)C[C@@H]1CCC(=O)NCc1ccc2c(c1)OCO2` [Compound S31], the CC50 (in vitro [1]) was 42.4 ± 15.4 µM, the “SI (CC50/IC50), Pseudotyped” value [2] was 8.9 and the IC50 [2] was 4.77 µM. The IC50 (EBOV trVLP [3]) was 2.41 µM, the CC50 (in vitro [4]) was 26.7 µM and the IC50 [6, 9] was under 5 µM. For the same molecule, the IC50 ([6]; read-out: IC50 with Tween 80) was 4.68 ± 0.36 µM, the “SI (CC50/IC50), trVLP” value (EBOV trVLP [7]) was 11.1 and the “Inhibitory activity” value [8] was “least average inhibitory activity against VSV-G”.

In the case of `CC(C)N[C@H]1C[C@@H](C(=O)CN2CCN(c3cccc(C(F)(F)F)c3)CC2)N(Cc2ccccc2)C1` [Compound S33], the CC50 (in vitro [1]) is reported as 29 ± 12.4 µM, the “SI (CC50/IC50), Pseudotyped” value [2] is reported as 5.0 and the IC50 [2] is reported as 5.85 ± 5.2 µM. The IC50 (EBOV trVLP [3]) was 3.06 µM, the CC50 (in vitro [4]) was 17.5 µM and the IC50 [6, 9] was under 10 µM. The IC50 ([6]; read-out: IC50 with Tween 80) was 8.12 ± 2.37 µM and the “SI (CC50/IC50), trVLP” value (EBOV trVLP [7]) was 5.7.

With `COc1ccc(OC)c(CN2CCC[C@@H](c3ccnc(SCCN4CCCC4)n3)C2)c1` [Compound S36] the CC50 (in vitro [1]) was 66.9 ± 33.3 µM, the “SI (CC50/IC50), Pseudotyped” value [2] was 10.6 and the IC50 [2] was 6.29 ± 1.55 µM. For the same molecule, the IC50 (EBOV trVLP [3]) was 3.19 µM, the CC50 (in vitro [4]) was 16.5 µM and the IC50 [6, 9] was under 10 µM. For the same molecule, the IC50 ([6]; read-out: IC50 with Tween 80) was 4.83 ± 1.11 µM and the “SI (CC50/IC50), trVLP” value (EBOV trVLP [7]) was 5.2.

For `CCN1CCC[C@@H]1CN(CC1CCN(COC)CC1)C(=O)CCc1ccc(F)cc1` [Compound S42], the IC50 (EBOV trVLP [3]) was 11.1 ± 12.9 µM, the CC50 (in vitro [4]) was 124 ± 71.2 µM and the “Impact on cell viability (cytotoxicity curves)” value (293T cells) was “minimal impact on cell viability”. The IC50 [6, 9] was 11.6 ± 9.95 µM, the IC50 ([6]; read-out: IC50 with Tween 80) was 36.5 ± 16.6 µM and the “SI (CC50/IC50), trVLP” value (EBOV trVLP [7]) was 11.2.

`CNC1CCN(c2nc3cc(OC)ccc3cc2CNCCc2ccc(OC)cc2)CC1` [Compound S49] showed a CC50 (in vitro [1]) of 66.6 ± 34 µM, an IC50 [2] of 5.06 µM and an IC50 (EBOV trVLP [3]) of 3.81 ± 3.16 µM. For the same molecule, the CC50 (in vitro [4]) was 22.4 µM, the IC50 [6, 9] was under 10 µM and the IC50 ([6]; read-out: IC50 with Tween 80) was 17.8 ± 10.6 µM. For the same molecule, the “SI (CC50/IC50), trVLP” value (EBOV trVLP [7]) was 5.9.

In the case of `CN1CCCC(CNC(=O)c2cc(NCc3ccccc3F)cc(S(=O)(=O)CNC(C)(C)C)c2)C1` (stereo not drawn) [Compound S58], the IC50 (EBOV trVLP [3]) is reported as 4.08 ± 0.88 µM, the CC50 (in vitro [4]) is reported as 105 ± 57.1 µM and the “Impact on cell viability (cytotoxicity curves)” value (293T cells) is reported as “minimal impact on cell viability”. The IC50 [6, 9] was 19.5 ± 18.9 µM, the IC50 ([6]; read-out: IC50 with Tween 80) was 40.5 ± 24.4 µM and the “SI (CC50/IC50), trVLP” value (EBOV trVLP [7]) was 25.8. The “Inhibitory activity” value [8] was “least average inhibitory activity against VSV-G”.
